The results in this text go back to patent US7009045B2 (priority 2000, dated 2006).

Assay [1] concerns Pichia guilliermondii wild type and regulatory mutants (rib81). Nature of the assay: Sensitivity after electroporation to K2Cr2O7, Burkholder medium with 0.3 M sucrose (Table 22). The class given is cell-based. The note with it: Cr^+6 100 to 600 μM.
Assay [2] shares this test system. The description is as above. Further details: key: +++: strong growth; ++: weak growth; —: absence of growth. Type of assay: cell-based.

Regarding `[K+].[K+].[O]=[Cr](=[O])([O-])[O][Cr](=[O])(=[O])[O-]` [K2Cr2O7], the “difference in sensitivity between regulatory mutants and the wild type” value in assay [1] is “no differences in sensitivity”. The growth result in assay [2] (#9-20 (leu2), K2Cr2O7 100 μM) is given as “+++”; in assay [2] (#9-20 (leu2), K2Cr2O7 150 μM) it was “+++”; in assay [2] (#9-20 (leu2), K2Cr2O7 200 μM), “+++”; in assay [2] (#9-20 (leu2), K2Cr2O7 250 μM), “+++”; in assay [2] (#9-20 (leu2), K2Cr2O7 300 μM) it was “+++”; in assay [2] (#9-20 (leu2), K2Cr2O7 350 μM), “+++”. In addition, the growth entry in assay [2] (#9-20 (leu2), K2Cr2O7 450 μM) was “—”; in assay [2] (#9-20 (leu2), K2Cr2O7 500 μM), “—”; in assay [2] (#9-20 (leu2), K2Cr2O7 550 μM) it was “—”; in assay [2] (#9-20 (leu2), K2Cr2O7 600 μM) it was “—”; in assay [2] (ATCC9058, K2Cr2O7 100 μM), “+++”; in assay [2] (ATCC9058, K2Cr2O7 150 μM), “+++”. The growth entry in assay [2] (ATCC9058, K2Cr2O7 200 μM) is reported as “+++”; in assay [2] (ATCC9058, K2Cr2O7 250 μM), “+++”; in assay [2] (ATCC9058, K2Cr2O7 300 μM), “+++”; in assay [2] (ATCC9058, K2Cr2O7 350 μM) it was “+++”; in assay [2] (ATCC9058, K2Cr2O7 450 μM), “—”; in assay [2] (ATCC9058, K2Cr2O7 500 μM), “—”. Moreover, the growth result in assay [2] (ATCC9058, K2Cr2O7 550 μM) was “—”; in assay [2] (ATCC9058, K2Cr2O7 600 μM), “—”.
